Reference: patent US20050203061A1, “Prodrug, medicinal utilization thereof and process for producing the same” (priority 2002, published 2005)

Experiments:
[1] = tested on: airway pressure of guinea pig sensitized with ovalbumin; assay: Antigen (ovalbumin) induced airway contraction, immediate type asthmatic model, Konzett and Rossler method; format: in vivo; details: for inhibition compared to the control group: 10 min
[2] = tested on: blood pressure and heart rate; assay: Blood pressure and heart rate after generalized inhalation exposure; format: in vivo, Crj:CD(SD) rats; details: inhalation 10 min; for increase of the heart rate: after five minutes
Description: The test was conducted by using Crj:CD(SD) rats with each group of 6 rats.
Surgery was carried out under the anesthesia of a mixed gas of oxygen, nitrous oxide and isoflurane, and one end of a polyethylene tube (PE50, Becton Dickinson) filled with physiological saline containing heparin (100 U/mL) was inserted into a common carotid artery and indwelled, and the other end was passed through the neighborhood of the neck of the back of the animal and connected to a cannula (Instec Co.) installed at the upper portion of an exposure chamber. This cannula was connected to a pressure transducer (P23XL. Gould Electronics) through a polyethylene tube. Further, the periphery of the polyethylene tube from the back of the rat up to this cannula was passed through a metallic spring to prevent a damage to be caused by the rat.
The administration of the drugs was conducted by preparing an exposure chamber and subjecting the rat with a cannula for measuring blood pressure in the indwelled state in the common cartoid artery to the generaliged inhalation exposure. This method is typically used in the generalized inhalation exposure.
The signals from the pressure transducer (P23XL, Gould Electronics) were led to a pressure processor signal conditioner (Gould Electronics) and recorded on a thermal array recorder (RS3400, Gould Electronics). The blood pressure and the heart rate were continuously recorded from before the initiation of administration to 20 minutes after the completion of administration. The administration of the drugs was initiated when not less than one hour after waking passed and the measurement parameters were stabilized.
Test substances were prepared in the same manner as in Example 1.
The representative values of each group were shown by mean values [[…] (S.E.)]. With the mean values of each group, the test of significance was conducted by the Tukey's multiple test. Further, the significant standard was regarded as 5%.

[3] = tested on: airway pressure of guinea pig sensitized with ovalbumin; assay: Antigen (ovalbumin) induced airway contraction, immediate type asthmatic model, Konzett and Rossler method; format: in vivo; details: for increase in the airway pressure / increase ratio of the airway pressure / inhibition compared to the control group: 10 min; for inhibition of the immediate type asthmatic reaction (airway contraction): inhalation administration, guinea pigs
Description: In order to examine the bronchodilation effect of the glucuronides of salbutamol and isoprenaline of β2-agonists, an asthmatic model of a guinea pig sensitized with ovalumin was used. The test was conducted in accordance with the method of Konzett and Rossler (Arch. Exp. Pathol. Pharmakol., 195, 71-75, 1940).
On day 1 and day 8 after the initiation of sensitization, 500 μg/0.5 mL of ovalbumin was intramuscularly administered to both legs of a guinea pig and 1.5×10^5 cells/mL/animal of pertussis vaccine was intraperitoneally administered to effect active sensitization. On day 15 after the initiation of sensitization, 10 and 100 μg/site of ovalbumin were intradermally administered to the back of the guinea pig, respectively, to check the state of sensitization. Only the animals which were found positive by the sensitization check 6 hours after the intradermal sensitization were used in the experiment.
As the test substance, a drug solution was atomized by reducing the atomizing amount of an ultrasonic nebulizer to generate an aerosol, and the aerosol was then led into an exposure chamber (M.I.P.S. Co.), sucked at a rate of 3 L/min with the use of an air pump (SPP-3GA, Techno Takatsuki Co.) and administered to the guinea pig for 10 minutes by inhalation 40 minutes before the challenge of ovalbumin.
On day 10 to 23 after the initiation of sensitization, the animals were anesthetized with sodium pentobarbital (50 mg/kg, i.p.), and cannulation was conducted into the trachea. Through the tracheal cannula the animals were connected to an artificial respirator and the change in the ventilation pressure under artificial respiration (a ventilation amount of 10 mL/kg, a ventilation frequency of 50 times/min) was recorded as the airway pressure through a differential pressure transducer (Validyne, Gould Electronics) connected to the tracheal cannula on a recorder (WT-645G, Nihon Koden Co., Ltd.). The airway pressure was measured up to 10 minutes after the administration of ovalbumin. Then, cannulation was conducted into the right and left common carotid veins. From the left cannulation, gallamine (10 mg/mL) in a volume of 1 mL/kg was intravenously administered ([…]) to confirm the disappearance of spontaneous respiration. Thereafter, ovalbumin was intravenously administered to induce an antigen-antibody reaction. The measuring points of the airway pressure were set at a time before induction, and at 1, 3, 5, 7, and 10 minutes after induction. The ratio of the increase in the airway pressure is represented by the percentage of the values obtained by subtracting the observed value before induction from the observed value at each measuring time after induction based on the maximum occlusion at each measuring time.
As the test substances, salbutamol glucuronide and isoprenaline glucuronide were used. The salbutamol glucuronide is a white powder and the isoprenaline glucuronide is a brown crystal and both were stored at −80° C. under protection from light. As the control substances for comparison, each of sulbutamol chloride (hereinafter referred to as sulbutamol) and isoprenaline chloride (hereinafter referred to as isoprenaline) was used. The salbutamol and the isoprenaline are white powders and were stored at room temperature under protection from light. The test substances and the control substances for comparison were weighed in a necessary amount and dissolved in physiological saline (products of Otsuka Pharmaceutical Factory, Inc., Lot Nos. 1D78 and 1E84) to effect the preparation before using. The concentrations of the test substances and the control substances for comparison in solutions were rendered equivalent amounts by molar concentration. All solutions were nearly stable at room temperature for 24 hours.
The obtained experimental results were shown by mean values and standard deviations with airway pressure. As to the test of significance, the Student's t test without any correspondence was conducted when two groups were compared. […]

[4] = tested on: tracheal smooth muscle sample of a pig; assay: In vitro inhibition of smooth muscle contraction induced with high concentration of KCl or carbachol; format: cell-based
Description: (§1) The smooth muscle contraction induced in the tracheal smooth muscle sample of a pig with a high concentration of KCl or carbachol is inhibited with an IC50 of about 5 μM. […] In mice, rats, guinea pigs, dogs, and monkeys, as the result of blood analysis after the administration, not less than 99% of the compound was the glucuronic conjugate in any of the animal species.

[5] = Blood analysis after oral administration (glucuronidation); format: in vivo, and monkeys; details: mice, rats, guinea pigs, dogs, monkeys (any species)
Description: as §1

[6] = inhalation 0.1%, three minutes after antigen induction
[7] = 1 mg/L, during 30 minutes of measurement
[8] = inhalation 0.157%, after three minutes
[9] = inhalation 0.072%, after three minutes
[10] = 5 mg/L, during 30 minutes of measurement

Compound: CC(C)NCC(O)c1ccc(O)c(O)c1 (stereo not shown) [isoprenaline]
- inhibition compared to the control group [1, 6]: about 73%
- increase of the heart rate ([2]; 1 mg/L): about 49%
- maximum decrease of the blood pressure [2, 7]: 28%
- maximum increase of the heart rate [2, 7]: 50%
- decrease of the blood pressure vs before the treatment ([2]; 1 mg/L, five minutes after completion of inhalation): about 27%
- blood pressure ([2]; isoprenaline 1 mg/L, five minutes after completion of inhalation): 72 mmHg
- increase in the airway pressure [3, 6]: about 12%

Compound: CCC1Cc2c(O)cc(O)cc2Sc2ccccc21 (stereo not shown) [11-Ethyl-7,9-dihydroxy-10,11-dihydrobenzo[b,f]thiepin]
- airway contraction inhibition ([1]; oral administration, 10 mg/kg): showed the airway contraction inhibition
- IC50 [4]: ~5 µM
- portion of the compound present as glucuronic conjugate in blood [5]: not less than 99%

Compound: CC(C)NCC(O)c1ccc(O[C@@H]2OC(C(=O)O)[C@@H](O)C(O)C2O)c(O)c1 (stereo partly drawn) [isoprenaline glucuronide, 4-O-(β-D-Glucuronyl)-isoprenaline]
- effect on blood pressure and heart rate ([2]; 1.57 mg/L): no effect was recognized at all
- increase ratio of the airway pressure [3, 8]: about 10%
- inhibition compared to the control group [3, 8]: about 77%
- inhibition of the immediate type asthmatic reaction (airway contraction) [3]: significantly inhibit

Compound: CC(C)(C)NCC(O)c1ccc(O)c(CO[C@@H]2OC(C(=O)O)[C@@H](O)C(O)C2O)c1 (stereo partly drawn) [salbutamol glucuronide, 3-O-(β-D-Glucuronyl)-salbutamol]
- inhibition compared to the control group [1, 9]: about 56%
- effect on blood pressure and heart rate ([2]; 7.2 mg/L): no effect was observed at all
- increase ratio of the airway pressure [3, 9]: about 20%
- inhibition of the immediate type asthmatic reaction (airway contraction) [3]: significantly inhibit

Compound: CC(C)(C)NCC(O)c1ccc(O)c(CO)c1 (stereo not shown) [salbutamol]
- increase of the heart rate ([2]; 5 mg/L): about 36%
- maximum blood pressure decrease ratio [2, 10]: 27%
- maximum heart rate increase ratio [2, 10]: 39%
- decrease of the blood pressure vs before inhalation (pre) ([2]; 5 mg/L, five minutes after completion of inhalation): about 26%
- blood pressure ([2]; salbutamol 5 mg/L, five minutes after completion of inhalation): 75 mmHg
- increase in the airway pressure ([3]; inhalation 0.05%, 40 min before challenge, three minutes after antigen induction): about 3%
- inhibition compared to the control group ([3]; inhalation 0.05%, three minutes after antigen induction): about 92%
